# Reference: patent US20090318424A1, “NOVEL COMPOUNDS” (priority 2006, published 2009)
row,SMILES,melting point
1,"CNc1nc(-c2cc(NC(=O)c3ccsc3)ccc2C)c2c(n1)N(c1c(F)cccc1F)C(=O)NC2 [Example 14, N-{3-[8-(2,6-difluorophenyl)-2-(methylamino)-7-oxo-5,6,7,8-tetrahydropyrimido[4,5-d]pyrimidin-4-yl]-4-methylphenyl}-3-thiophenecarboxamide]",203 to 207 °C (dec.)
2,"Cc1ccc(C(=O)NCc2ccccc2)cc1-c1nc(NC2CC(C)(C)NC(C)(C)C2)nc2c1CNC(=O)N2c1c(F)cccc1F [Example 16, 3-{8-(2,6-Difluorophenyl)-7-oxo-2-[(2,2,6,6-tetramethyl-4-piperidinyl)amino]-5,6,7,8-tetrahydropyrimido[4,5-d]pyrimidin-4-yl}-4-methyl-N-(phenylmethyl)benzamide]",160 to 165 °C (dec.)
3,"Cc1ccc(C(=O)NCc2ccccc2)cc1-c1nc(NCCN(C)C)nc2c1CNC(=O)N2c1c(F)cccc1F [Example 18, 3-(8-(2,6-Difluorophenyl)-2-{[2-(dimethylamino)ethyl]amino}-7-oxo-5,6,7,8-tetrahydropyrimido[4,5-d]pyrimidin-4-yl)-4-methyl-N-(phenylmethyl)benzamide]",148 to 150 °C
4,"Cc1ccc(C(=O)NCc2ccccc2)cc1-c1nc(NCCNC(C)C)nc2c1CNC(=O)N2c1c(F)cccc1F [Example 20, 3-[8-(2,6-Difluorophenyl)-2-({2-[(1-methylethyl)amino]ethyl}amino)-7-oxo-5,6,7,8-tetrahydropyrimido[4,5-d]pyrimidin-4-yl]-4-methyl-N-(phenylmethyl)benzamide]",133 to 137 °C
5,"Cc1ccc(C(=O)NCc2ccccc2)cc1-c1nc(NC2CCN(C)CC2)nc2c1CNC(=O)N2c1c(F)cccc1F [Example 22, 3-{8-(2,6-Difluorophenyl)-2-[(1-methyl-4-piperidinyl)amino]-7-oxo-5,6,7,8-tetrahydropyrimido[4,5-d]pyrimidin-4-yl}-4-methyl-N-(phenylmethyl)benzamide]",152 to 154 °C (dec.)
6,"CCOc1nc(-c2cc(NC(=O)c3ccc(C)c(F)c3)ccc2C)c2c(n1)N(c1c(F)cccc1F)C(=O)NC2 [Example 25, N-{3-[8-(2,6-difluorophenyl)-2-(ethyloxy)-7-oxo-5,6,7,8-tetrahydropyrimido[4,5-d]pyrimidin-4-yl]-4-methylphenyl}-3-fluoro-4-methylbenzamide]",257.3 to 262.5 °C
7,"Cc1ccc(C(=O)Nc2ccc(C)c(-c3nc(NC4CCNCC4)nc4c3CNC(=O)N4c3c(F)cccc3F)c2)cc1F [Example 27(b), N-{3-[8-(2,6-difluorophenyl)-7-oxo-2-(4-piperidinylamino)-5,6,7,8-tetrahydropyrimido[4,5-d]pyrimidin-4-yl]-4-methylphenyl}-3-fluoro-4-methylbenzamide]",218 to 223.5 °C
8,"Cc1ccc(C(=O)NCc2ccccc2)cc1-c1nc(N2CCC(N(C)C(=O)OC(C)(C)C)CC2)nc2c1CNC(=O)N2c1c(F)cccc1F [Example 147, 1,1-dimethylethyl {-[8-(2,6-difluorophenyl)-4-(2-methyl-5-{[(phenylmethyl)amino]carbonyl}phenyl)-7-oxo-5,6,7,8-tetrahydropyrimido[4,5-d]pyrimidin-2-yl]-4-piperidinyl}methylcarbamate]",146 to 150 °C (dec.)
9,"Cc1ccc(C(=O)N(C)C)cc1-c1nc(NCCN(C)C)nc2c1CNC(=O)N2c1c(F)cccc1F [Example 152, 3-(8-(2,6-difluorophenyl)-2-{[2-(dimethylamino)ethyl]amino}-7-oxo-5,6,7,8-tetrahydropyrimido[4,5-d]pyrimidin-4-yl)-NN,4-trimethylbenzamide]",138 to 142 °C
10,"Cc1ccc(C(=O)N(C)C)cc1-c1nc(NCCNC(C)C)nc2c1CNC(=O)N2c1c(F)cccc1F [Example 153, 3-[8-(2,6-difluorophenyl)-2-({2-[(1-methylethyl)amino]ethyl}amino)-7-oxo-5,6,7,8-tetrahydropyrimido[4,5-d]pyrimidin-4-yl]-N,N,4-trimethylbenzamide]",130 to 133 °C
11,"Cc1ccc(C(=O)N(C)C)cc1-c1nc(N(C)CCCN(C)C)nc2c1CNC(=O)N2c1c(F)cccc1F [Example 154, 3-{8-(2,6-difluorophenyl)-2-[[3-(dimethylamino)propyl](methyl)amino]-7-oxo-5,6,7,8-tetrahydropyrimido[4,5-d]pyrimidin-4-yl}-N,N,4-trimethylbenzamide]",114 to 118 °C
12,"Cc1ccc(C(=O)N(C)C)cc1-c1nc(NC2CCN(C)CC2)nc2c1CNC(=O)N2c1c(F)cccc1F [Example 155, 3-{8-(2,6-difluorophenyl)-2-[(1-methyl-4-piperidinyl)amino]-7-oxo-5,6,7,8-tetrahydropyrimido[4,5-d]pyrimidin-4-yl}-N,N,4-trimethylbenzamide]",163 to 165 °C
13,"CCN(CC)C(=O)c1ccc(C)c(-c2nc(NC3CCN(C)CC3)nc3c2CNC(=O)N3c2c(F)cccc2F)c1 [Example 159, 3-{8-(2,6-difluorophenyl)-2-[(1-methyl-4-piperidinyl)amino]-7-oxo-5,6,7,8-tetrahydropyrimido[4,5-d]pyrimidin-4-yl}-N,N-diethyl-4-methylbenzamide]",165 to 169 °C
14,"CCN(CC)C(=O)c1ccc(C)c(-c2nc(NCCNC(C)C)nc3c2CNC(=O)N3c2c(F)cccc2F)c1 [Example 160, 3-[8-(2,6-difluorophenyl)-2-({2-[(1-methylethyl)amino]ethyl}amino)-7-oxo-5,6,7,8-tetrahydropyrimido[4,5-d]pyrimidin-4-yl]-N,N-diethyl-4-methylbenzamide]",89 to 91 °C
15,"CCN(CC)C(=O)c1ccc(C)c(-c2nc(N(C)CCCN(C)C)nc3c2CNC(=O)N3c2c(F)cccc2F)c1 [Example 161, 3-{8-(2,6-difluorophenyl)-2-[[3-(dimethylamino)propyl](methyl)amino]-7-oxo-5,6,7,8-tetrahydropyrimido[4,5-d]pyrimidin-4-yl}-N,N-diethyl-4-methylbenzamide]",106 to 108 °C
16,"CCN(CC)C(=O)c1ccc(C)c(-c2nc(N3CCN(C)CC3)nc3c2CNC(=O)N3c2c(F)cccc2F)c1 [Example 162, 3-[8-(2,6-difluorophenyl)-2-(4-methyl-1-piperazinyl)-7-oxo-5,6,7,8-tetrahydropyrimido[4,5-d]pyrimidin-4-yl]-N,N-diethyl-4-methylbenzamide]",201 to 205 °C (dec.)
17,"CNC(=O)c1ccc(C)c(-c2nc(NCCN(C)C)nc3c2CNC(=O)N3c2c(F)cccc2F)c1 [Example 163(c), 3-(8-(2,6-difluorophenyl)-2-{[2-(dimethylamino)ethyl]amino}-7-oxo-5,6,7,8-tetrahydropyrimido[4,5-d]pyrimidin-4-yl)-N,4-dimethylbenzamide]",155 to 158 °C (dec.)
18,"CNC(=O)c1ccc(C)c(-c2nc(NCCNC(C)C)nc3c2CNC(=O)N3c2c(F)cccc2F)c1 [Example 167, 3-[8-(2,6-difluorophenyl)-2-({2-[(1-methylethyl)amino]ethyl}amino)-7-oxo-5,6,7,8-tetrahydropyrimido[4,5-d]pyrimidin-4-yl]-N,4-dimethylbenzamide]",136 to 139 °C (dec.)
19,"CNC(=O)c1ccc(C)c(-c2nc(NCCCNC(C)C)nc3c2CNC(=O)N3c2c(F)cccc2F)c1 [Example 168, 3-[8-(2,6-difluorophenyl)-2-({3-[(1-methylethyl)amino]propyl}amino)-7-oxo-5,6,7,8-tetrahydropyrimido[4,5-d]pyrimidin-4-yl]-N,4-dimethylbenzamide]",153 to 157 °C (dec.)
20,"CNC(=O)c1ccc(C)c(-c2nc(N3CCN(C)CC3)nc3c2CNC(=O)N3c2c(F)cccc2F)c1 [Example 169, 3-[8-(2,6-difluorophenyl)-2-(4-methyl-1-piperazinyl)-7-oxo-5,6,7,8-tetrahydropyrimido[4,5-d]pyrimidin-4-yl]-N,4-dimethylbenzamide]",164 to 168 °C (dec.)
21,"CNC(=O)c1ccc(C)c(-c2nc(NCCCNC(C)(C)C)nc3c2CNC(=O)N3c2c(F)cccc2F)c1 [Example 170, 3-[8-(2,6-difluorophenyl)-2-({3-[(1,1-dimethylethyl)amino]propyl}amino)-7-oxo-5,6,7,8-tetrahydropyrimido[4,5-d]pyrimidin-4-yl]-N,4-dimethylbenzamide]",166 to 170 °C (dec.)
22,"CCCCN(CCCC)CCCNc1nc(-c2cc(C(=O)NC)ccc2C)c2c(n1)N(c1c(F)cccc1F)C(=O)NC2 [Example 171, 3-[2-{[3-(dibutylamino)propyl]amino}-8-(2,6-difluorophenyl)-7-oxo-5,6,7,8-tetrahydropyrimido[4,5-d]pyrimidin-4-yl]-N,4-dimethylbenzamide]",112 to 115 °C
23,"CNC(=O)c1ccc(C)c(-c2nc(NC3CCN(C)CC3)nc3c2CNC(=O)N3c2c(F)cccc2F)c1 [Example 173, 3-{8-(2,6-difluorophenyl)-2-[(1-methyl-4-piperidinyl)amino]-7-oxo-5,6,7,8-tetrahydropyrimido[4,5-d]pyrimidin-4-yl}-N,4-dimethylbenzamide]",205 to 209 °C (dec.)
